Test results: patent US20220260566A1, “IMMUNITY MECHANISM AND THERAPEUTIC DRUG FOR GASTROINTESTINAL DISEASES” (GUANGZHOU WOMEN AND CHILDREN'S MEDICAL CENTER, priority 2018, published 2022)
“Also recorded” adds a separate entry of the source.

How the values were obtained:
[1] = test system: platelet aggregation (CD41 clusters) in the colonic mucosa; experiment: Immunofluorescence of colonic mucosa before and after treatment: platelet aggregation (CD41 clusters); assay type: in vivo, human; conditions: children, after vs before dipyridamole treatment
Procedure: (§1) Use formalin-fixed and paraffin-embedded paraffin blocks to prepare 3 um tissue sections. After deparaffinization, blocking antibodies (PBS containing 5% normal donkey or goat serum and 0.3% Triton X-100) are incubated for 1 hour at room temperature, and washed with PBS Then incubate the primary antibody (CD39, CD41, pT71-ATF2 or pS133-CREB) overnight in a 4 C dark humidified box. Then, after washing with PBS, incubate the secondary antibodies (goat anti-mouse IgG1 combined with AF488 and goat anti-rabbit IgG combined with Cy3) for 1 hour at room temperature, and then incubate the anti-quencher containing DAPI. Then, use the Lycra automatic inverted fluorescence microscope to observe and take pictures (20×0.75), and use the Lycra X image analysis software to process the brightness, luminosity, contrast and color balance of the image to restore the image as much as possible. For each observation condition, 4-5 areas in each mucosal section were randomly selected for observation, and the CD41 aggregation (fluorescence diameter greater than 7 μm) was measured and counted using the card X image analysis software.

activated ATF2 and CREB = experiment: Immunofluorescence of colonic mucosa: activated ATF2 and CREB co-expressed with CD39; assay type: in vivo, human; conditions: children, after vs before dipyridamole treatment
Procedure: [Worded in the source for another target; this target is reported under the same test.] as §1, with “[…]-ATF2” for “pT71-ATF2”, “[…]-CREB)” for “pS133-CREB)”, “Lycra X” left out

[2] = test system: HEK 293T cells stably transfected with the cAMP reporter gene GloSensor-22F cAMP plasmid; experiment: cAMP reporter assay (GloSensor-22F cAMP plasmid); assay type: cell-based; conditions: HEK 293T reporter cells; 3 independent experiments; forskolin as positive control
Text: FIG. 4: Highly inflammatory macrophage and dendritic cell (DC) infiltration in colitis and IBD patients compared to control subjects. […] The red and navy blue dots represent individual genes that pass the P value (≤0.05) and log 2 (Fold Change) (red, ≥1; navy blue, ≤−1) threshold. […] Forskolin, which increases the concentration of cAMP by activating adenylate cyclase, was used as a positive control. […] Colonic mucosa sections were stained with anti-CD68 to mark macrophages, and stained with NLRP3 and ASC for inflammasome. […] The P value was calculated using the Mann-Whitney U test, *, P<0.05****, P<0.0001. (D) Heat map showing the relative expression of colitis/IBD risk genes in myeloid cells.

[3] = test system: DSS-induced acute colitis; experiment: DSS-induced acute colitis model; assay type: in vivo, C57BL/6J mice
Procedure: Male C57BL/6J mice (20-22 g), six to eight weeks old, were purchased from Guangzhou University of Traditional Chinese Medicine. The mice were given regular food and water before the experiment. Weight-matched mice were used in all studies Animal research was approved by the Animal Care and Utilization Committee of Guangzhou Medical University (permit number: 2019-471) and was conducted in accordance with institutional guidelines.
The control mice were given regular food and water. The mice were monitored daily and if the weight loss exceeded 20%, they were euthanized.
For hematoxylin and eosin (H&E) staining, the colon was fixed in 4% paraformaldehyde (PFA) for 24 hours and embedded in paraffin. Prepare sections (3 μm) and deparaffinize before staining
To detect platelet aggregation in colon slices, the tissue was fixed in 4% PFA for 24 hours, cryoprotected in 30% sucrose for 48 hours, and then embedded in an Optimal Cutting Temperature (O.C.T.) compound. The frozen sections (5 μm) were washed, blocked with 10% goat serum, and incubated with anti-mouse CD41-FITC (133903, BioLegend, CA, USA) at 4° C. overnight.
After washing with PBS to remove unbound antibodies, the sections were fixed with […] anti-fading fixation medium (H-1200, Vector Laboratories, CA, USA) with DAPI for nuclear staining The immunofluorescence staining and image processing were performed as described above. Platelet aggregates are defined as CD41+ clusters (diameter >7 μm). Leica X image analysis software (Leica, Hamburg, Germany) and ImageJ software (National Institutes of Health, Maryland, USA) were used to count and analyze the number of CD41+ clusters per square millimeter. For each colon section, platelet aggregation in 5 randomly selected areas was recorded.
In order to analyze the expression of cytokines, the residual mesenteric fat in the colon was removed, weighed and dispersed in a single cell suspension with 1 mL of PBS. After centrifugation at 1000×g for 10 minutes at 4° C., the supernatant was taken to determine the concentration of TNF-α, IL-1β and IL-6 by ELISA.

[4] = test system: CD39 in colonic intraepithelial T cells; experiment: CD39 expression of immune cells in DSS colitis model (flow cytometry); assay type: in vivo, mice
Procedure: From the second day of treatment, DSS was added to drinking water (2.5%) for 7 days. The control mice were given regular food and water. In order to analyze colon immune cells, the present invention harvests the colon and removes excess fat. After washing with ice-cold PBS, the colon was cut into pieces approximately 0.3-0.5 cm in length. After gentle rotation in the dissociation solution (HBSS without Ca/Mg, with 5 mM EDTA and 2% FBS) at 37° C. for 40 minutes, the intraepithelial lymphocytes (IEL) were pelleted, washed and resuspended in staining buffer (PBS 2% FBS). The remaining undigested colon tissue samples were gently rotated in the digestion solution (RPMI1640 containing 2% FBS, 2 mg/mL collagenase IV, 0.4 U/mL dispase and 1 μg/mL DNase) at 37° C. for 45 minutes. Pellet lamina propria lymphocytes (LPL), wash and resuspend in staining buffer. T cell plates (CD45-APC-Cy7, CD3-BV711, […]-Cy7, CD8-BV785, γδT-BV421 and CD4-APC) or myeloid plates (MHC II-BV550, CD11b-BV510 and CD39-PE-Cy7) were stained on ice for 30 minutes, and then analyzed on a FACSAria SORP flow cytometer (BD Science).

[5] = test system: CD39 expression in CD8+ T cells; experiment: CD39 expression during CD8+ T cell activation; assay type: cell-based; conditions: dose-dependent manner
children with colitis = experiment: Clinical trial of dipyridamole in children with colitis (Table 5, 23 patients); assay type: in vivo, human
Text: In the following, it is investigated whether the cAMP activation pathway regulates CD39 expression in T cells. […] The clinical trial was approved by the Ethical Review Committee of Guangzhou Women and Children's Medical Center and registered in the China Clinical Trial Registration Center (ChiCTR1800019803). All patients or family members signed an informed consent form.

[6] = test system: subjects with colitis confirmed by endoscopy and subjects with undefined IBD (IBDU); experiment: Clinical trial of dipyridamole in 9 children with endoscopy-confirmed colitis or undefined IBD (Table 6); assay type: in vivo, human
Text: The inventors also conducted clinical trial studies in subjects with colitis confirmed by endoscopy and subjects with undefined IBD (IBDU) (Table 6).
In Table 6, PLT stands for platelet count, HGB stands for hemoglobin, and ALB stands for albumin.

CD39 = experiment: Immunofluorescence of colonic mucosa before and after treatment: CD39 expression; assay type: in vivo, human
Procedure: as §1

[7] = test system: CD68+ macrophages and TNF-α in the colonic mucosa; experiment: Immunofluorescence of colonic mucosa before and after treatment: CD68+ macrophages, TNF-α, PDE4B; assay type: in vivo, human; conditions: for PDE4B: summary of immunological results after treatment; for macrophage invasion in colonic mucosa: children with colitis or IBD, after vs before methylprednisolone or anti-TNF-α, FIG. 6C
[8] = test system: TNF-α in monocytes and macrophages; experiment: TNF-α expression in monocytes and macrophages in vitro; assay type: cell-based; conditions: in vitro and in vivo
[9] = test system: children with colitis or IBD; experiment: Children with colitis or IBD treated with methylprednisolone or anti-TNF-α antibody: colonoscopy and clinical status; assay type: in vivo, human
[10] = dipyridamole 10 mg/kg twice a day vs DSS alone, 3% DSS
[11] = dipyridamole 10 mg/kg vs DSS alone
[12] = children, after vs before dipyridamole (n=7), FIG. 7H

Compound: OCCN(CCO)c1nc(N2CCCCC2)c2nc(N(CCO)CCO)nc(N3CCCCC3)c2n1 [dipyridamole]
- platelet aggregation in the colonic mucosa (CD41 clusters) [1]: significantly reduced
- co-localized activated transcription factors ATF2 and CREB with CD39 in colonic mucosa (activated ATF2 and CREB): increased; also recorded: enhanced
- cytoplasmic cAMP concentration [2]: significantly increase
- body weight [3, 10]: significantly increased
- colon length [3, 10]: significantly increased
- epithelial integrity and structure (HE stained colon sections) [3, 11]: improved
- platelet aggregation in colonic mucosa (CD41+ clusters) [3, 11]: reduced
- TNF-α expression in colon mucosa ([3]; dipyridamole vs DSS alone, ELISA): reduced
- CD39 expression in colonic epithelial CD4, CD8 and γδT cells ([4]; dipyridamole 5 mg/kg or 50 mg/kg for 8 days, 2.5% DSS, dose-dependent manner): significantly increased
- expression of CD39 in CD4, CD8 and γδT cells ([4]; intraperitoneal injection of dipyridamole at 50 mg/kg): significantly increased
- CD39 expression during CD8+ T cell activation [5]: significantly increased
- Severity score, Post-treatment, median (children with colitis; after dipyridamole 3-5 mg/kg/day, treatment duration median 4 (2-12) weeks, 23 children, range 0-5, P < 0.0001 vs pre-treatment): 1
- Platelet counts, Post-treatment, median (children with colitis; after dipyridamole 3-5 mg/kg/day, 23 children, range 217-497, reference range 140-440, P = 0.0001 vs pre-treatment): 296 10^9/L
- clinical severity score after treatment (children with colitis; after vs before dipyridamole (FIG. 3d)): significantly reduced
- colon lining (colonoscopy appearance) (children with colitis; after vs before dipyridamole (FIG. 3d, 3e)): significantly improved
- Severity score, Pre-treatment, median (children with colitis; baseline before dipyridamole, 23 children, range 4-14, scoring criteria of Table 4): 9
- Platelet counts, Pre-treatment, median (children with colitis; baseline before dipyridamole, 23 children, range 235-790, reference range 140-440): 370 10^9/L
- adverse reactions (children with colitis; children with colitis, dipyridamole 3-5 mg/kg/day): no reports of adverse reactions
- clinical, endoscopic and histological severity scores ([6]; after vs before dipyridamole (FIG. 7E, Table 6)): significantly improved
- adverse reactions ([6]; dipyridamole 3-5 mg/kg/day for 8 to 12 weeks): No obvious adverse reactions
- expression of CD39 in CD8 and CD4 T cells and macrophages of colonic mucosa (CD39; children, after vs before dipyridamole treatment): increase
- TNF-α expression in colonic mucosa [7, 12]: significantly reduced
- macrophage infiltration in colonic mucosa [7, 12]: significantly reduced
- PDE4B [7]: inhibited
- expression of TNF-α in monocytes and macrophages [8]: inhibit

Compound: C[C@H]1C[C@@H]2[C@H]([C@@H](O)C[C@@]3(C)[C@H]2CC[C@]3(O)C(=O)CO)[C@@]2(C)C=CC(=O)C=C12 [methylprednisolone]
- macrophage invasion in colonic mucosa [7]: no effect
- PDE4B [7]: no effect

Compound: anti-TNF-α: Anti-TNF-α drug (Infliximab), anti-TNF-α antibody biologic used to treat colitis and IBD
- expression of CD39 (CD39 IET) in colonic mucosa (CD39; children with colitis or IBD, after vs before methylprednisolone (n=5) or anti-TNF-α (n=6), FIG. 6C): no effect
- appearance of the colon (colonoscopy) ([9]; after vs before treatment, FIG. 6B): improved
- clinical status / clinical symptoms ([9]; patients with inflammatory bowel disease, for methylprednisolone some patients only): improved
- macrophage invasion in colonic mucosa [7]: no effect
